Assay results taken from patent US11071731B2, “Allosteric modulators of the mu opioid receptor” (Chiromics, LLC, priority 2017, dated 2021).

Assays:
[1] = biological target: T1, mu opioid receptor (MOR) (Homo sapiens, UniProt P35372); assay: PathHunter β-arrestin recruitment assay, PAM mode with EC20 endomorphin-1; type: cell-based
Outline: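 β-Arrestin recruitment to the receptor was tracked by chemiluminescent β-galactosidase activity from complementing fragments (ED on receptor, EA on β-arrestin). Per-compound outputs were EC50 and percent maximal response.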

[2] = biological target: T1, mu opioid receptor (MOR); assay: Hit Hunter cAMP signaling assay (adenylyl cyclase inhibition), PAM mode with EC20 endomorphin-1; type: cell-based
[3] = maximal response for β-arrestin recruitment
[4] = β-arrestin recruitment, read-out: β-arr. EC50
[5] = adenylyl cyclase inhibition, read-out: cAMP EC50
[6] = maximal response for adenylyl cyclase inhibition
[7] = cAMP EC50, adenylyl cyclase inhibition
[8] = maximal response, β-arrestin recruitment
[9] = maximal response, adenylyl cyclase inhibition

T1 sequence (P35372 whole entry, the tested form may be a part): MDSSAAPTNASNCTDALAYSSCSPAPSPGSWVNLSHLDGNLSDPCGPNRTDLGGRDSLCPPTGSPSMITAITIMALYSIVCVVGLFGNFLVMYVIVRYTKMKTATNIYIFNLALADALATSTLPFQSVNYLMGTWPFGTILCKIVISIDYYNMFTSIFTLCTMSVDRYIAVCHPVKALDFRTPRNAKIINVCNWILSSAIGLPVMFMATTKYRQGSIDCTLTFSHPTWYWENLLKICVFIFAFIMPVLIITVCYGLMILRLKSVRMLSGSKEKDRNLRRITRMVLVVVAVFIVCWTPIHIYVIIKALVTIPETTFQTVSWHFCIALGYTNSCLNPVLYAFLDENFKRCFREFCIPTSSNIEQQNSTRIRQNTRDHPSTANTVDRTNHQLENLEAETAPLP

O=S(=O)(c1ccc(Cl)cc1)N1CCCCC1c1ccc(F)c(C(F)(F)F)c1 (racemic) [compound 55]
β-arr Max. Resp. [1, 3]: F (F represents a maximal response of > 60%) | β-arrestin Max Response ([1]; β-arrestin recruitment, activity switching by MOR PAMs): F (F represents a maximal response of >60%) | EC50 ([1]; β-arrestin recruitment, activity switching by MOR PAMs, read-out: β-arrestin EC50): > 2100 nM | EC50 [1, 4]: > 2100 nM | cAMP Max Resp. ([2]; adenylyl cyclase inhibition, activity switching by MOR PAMs): D (D represents a maximal response of < 40%) | EC50 ([2]; adenylyl cyclase inhibition, activity switching by MOR PAMs, read-out: cAMP EC50): > 2100 nM | EC50 [2, 5]: 700 to 2100 nM | cAMP Max. Resp. [2, 6]: E (E represents a maximal response of 40-60%)

Fc1cc(C2CCCCN2Cc2cc(Cl)ccc2F)cc(C(F)(F)F)c1 (stereo not drawn) [compound 167]
β-arr Max. Resp. [1, 3]: F (F represents a maximal response of > 60%) | EC50 [1, 4]: < 700 nM | EC50 [2, 7]: 700 to 2100 nM | cAMP Max. Resp. [2, 6]: F (F represents a maximal response of > 60%)

Fc1ccc(C2CCCCN2Cc2cc(Cl)cc(Cl)c2)cc1Cl (stereo not drawn) [compound 151]
β-arr Max. Resp. [1, 3]: F (F represents a maximal response of > 60%) | EC50 [1, 4]: > 2100 nM | EC50 [2, 7]: > 2100 nM | cAMP Max. Resp. [2, 6]: D (D represents a maximal response of < 40%)

COc1ccc(C2CCCCN2S(=O)(=O)c2ccc(Cl)cc2)cc1C (racemic) [compound 68]
β-arr Max. Resp. [1, 3]: F (F represents a maximal response of > 60%) | EC50 [1, 4]: > 2100 nM | EC50 [2, 5]: 700 to 2100 nM | cAMP Max. Resp. [2, 6]: E (E represents a maximal response of 40-60%)

Fc1cc(C2CC(F)CN2c2nc(Cl)ncc2F)cc(C(F)(F)F)c1 (stereo not drawn) [compound 468]
β-arr Max. Resp. [1, 8]: F (F represents a maximal response of > 60%) | EC50 [1, 4]: > 2100 nM | EC50 [2, 5]: > 2100 nM | cAMP Max. Resp. [2, 9]: F (F represents a maximal response of > 60%)

Fc1ccc(C2CCCCN2c2nc(Cl)ncc2F)cc1F (stereo not drawn) [compound 129]
β-arr Max. Resp. [1, 3]: F (F represents a maximal response of > 60%) | EC50 [1, 4]: < 700 nM | EC50 [2, 7]: 700 to 2100 nM | cAMP Max. Resp. [2, 6]: E (E represents a maximal response of 40-60%)

COc1ccc(C2CCCCN2c2nc(Cl)ncc2OC)cc1Br (stereo not drawn) [compound 235]
β-arr Max. Resp. [1, 3]: F (F represents a maximal response of > 60%) | EC50 [1, 4]: > 2100 nM | EC50 [2, 7]: > 2100 nM | cAMP Max. Resp. [2, 6]: F (F represents a maximal response of > 60%)

Fc1cncc(C2CCCCN2c2nc(Cl)ncc2F)c1 (stereo not drawn) [compound 370]
β-arr Max. Resp. [1, 3]: D (D represents a maximal response of < 40%) | EC50 [1, 4]: < 700 nM | EC50 [2, 7]: < 700 nM | cAMP Max. Resp. [2, 6]: D (D represents a maximal response of < 40%)

Fc1cnc(Cl)nc1N1CCCCC1c1cccc2cnnn12 (stereo not drawn) [compound 333]
β-arr Max. Resp. [1, 3]: D (D represents a maximal response of < 40%) | EC50 [1, 4]: < 700 nM | EC50 [2, 7]: < 700 nM | cAMP Max. Resp. [2, 6]: D (D represents a maximal response of < 40%)

FC(F)(F)c1cccc(C2CCCCN2c2cc(Cl)ncn2)c1 (stereo not drawn) [compound 360]
β-arr Max. Resp. [1, 3]: D (D represents a maximal response of < 40%) | EC50 [1, 4]: < 700 nM | EC50 [2, 7]: < 700 nM | cAMP Max. Resp. [2, 6]: D (D represents a maximal response of < 40%)

FC(F)(F)c1cccc(C2CCCCN2c2ccnc(Cl)n2)n1 (stereo not drawn) [compound 469]
β-arr Max. Resp. [1, 8]: F (F represents a maximal response of > 60%) | EC50 [1, 4]: > 2100 nM | EC50 [2, 7]: > 2100 nM | cAMP Max. Resp. [2, 9]: D (D represents a maximal response of < 40%)

FC(F)(F)c1cccc(C2CCCCN2Cc2cc(Cl)cc(Cl)c2)n1 (stereo not drawn) [compound 159]
β-arr Max. Resp. [1, 3]: F (F represents a maximal response of > 60%) | EC50 [1, 4]: 700 to 2100 nM | EC50 [2, 7]: 700 to 2100 nM | cAMP Max. Resp. [2, 6]: E (E represents a maximal response of 40-60%)

Fc1ccc(C2CC=CCN2c2nc(Cl)ncc2F)cc1Br (stereo not drawn) [compound 244]
β-arr Max. Resp. [1, 3]: F (F represents a maximal response of > 60%) | EC50 [1, 4]: < 700 nM | EC50 [2, 5]: < 700 nM | cAMP Max. Resp. [2, 6]: D (D represents a maximal response of < 40%)

Fc1cc(C2CCCCN2c2nc(Cl)ncc2F)cc(C(F)(F)F)c1 (single isomer, unassigned) [compound 423]
β-arr Max. Resp. [1, 8]: D (D represents a maximal response of < 40%) | EC50 [1, 4]: < 700 nM | EC50 [2, 7]: < 700 nM | cAMP Max. Resp. [2, 9]: D (D represents a maximal response of < 40%)

COc1ccc(C2N(S(=O)(=O)c3ccc(Cl)cc3)CCC2(F)F)cc1Br (racemic) [Compound 85]
β-arr Max. Resp. [1, 3]: D (D represents a maximal response of < 40%) | EC50 [1, 4]: > 2100 nM | EC50 [2, 5]: > 2100 nM | cAMP Max. Resp. [2, 6]: D (D represents a maximal response of < 40%)

Fc1cnc(Cl)nc1N1CCCCC1c1ccnc2ccccc12 (stereo not drawn) [compound 283]
β-arr Max. Resp. [1, 3]: D (D represents a maximal response of < 40%) | EC50 [1, 4]: > 2100 nM | EC50 [2, 7]: > 2100 nM | cAMP Max. Resp. [2, 6]: F (F represents a maximal response of > 60%)

Fc1cnc(Cl)nc1N1CCOCC1c1cccc(C(F)(F)F)n1 (racemic) [Compound 186]
β-arr Max. Resp. [1, 3]: E (E represents a maximal response of 40-60%) | EC50 [1, 4]: > 2100 nM | EC50 [2, 5]: > 2100 nM | cAMP Max. Resp. [2, 6]: D (D represents a maximal response of < 40%)

COc1ccc(C2C3CCC(C3)N2c2nc(Cl)ncc2F)cc1Br (stereo not drawn) [compound 138]
β-arr Max. Resp. [1, 3]: D (D represents a maximal response of < 40%) | EC50 [1, 4]: > 2100 nM | EC50 [2, 7]: > 2100 nM | cAMP Max. Resp. [2, 6]: D (D represents a maximal response of < 40%)

Fc1ccc(C2C(F)CCCN2c2nc(Cl)ncc2F)cc1Br (stereo not drawn) [compound 214]
EC50 [1, 4]: > 2100 nM | EC50 [2, 5]: 700 to 2100 nM

COc1ccc(C2CCCCN2S(=O)(=O)c2ccc(F)cc2)cc1Br (stereo not drawn) [compound 13]
β-arr Max. Resp. [1, 3]: F (F represents a maximal response of > 60%) | EC50 [1, 4]: > 2100 nM | EC50 [2, 5]: > 2100 nM | cAMP Max. Resp. [2, 6]: F (F represents a maximal response of > 60%)

[2H]C1(c2ccc(F)c(Br)c2)C(F)CCCN1S(=O)(=O)c1ccc(Cl)cc1F (stereo not drawn) [Compound 37]
β-arr Max. Resp. [1, 3]: F (F represents a maximal response of > 60%) | cAMP Max. Resp. [2, 6]: D (D represents a maximal response of < 40%)

COc1ccc(C2CCCCN2S(=O)(=O)C2CC2)cc1Br (stereo not drawn) [compound 15]
β-arr Max. Resp. [1, 3]: E (E represents a maximal response of 40-60%) | EC50 [1, 4]: > 2100 nM | EC50 [2, 7]: > 2100 nM | cAMP Max. Resp. [2, 6]: E (E represents a maximal response of 40-60%)

Cc1nccc(N2CCCCC2c2cncc(Cl)n2)n1 (stereo not drawn) [compound 396]
β-arr Max. Resp. [1, 3]: D (D represents a maximal response of < 40%) | EC50 [1, 4]: < 700 nM | EC50 [2, 7]: < 700 nM | cAMP Max. Resp. [2, 6]: D (D represents a maximal response of < 40%)

CC1CCN(S(=O)(=O)c2ccc(Cl)cc2)C1c1ccc(F)c(Br)c1 (stereo not drawn) [Compound 106]
β-arr Max. Resp. [1, 3]: F (F represents a maximal response of > 60%) | EC50 [1, 4]: 700 to 2100 nM | EC50 [2, 5]: < 700 nM | cAMP Max. Resp. [2, 6]: D (D represents a maximal response of < 40%)

CC1CCN(S(=O)(=O)c2ccc(Cl)cc2)C1c1ccc2c(c1)OCO2 (mixture of isomers) [Compound 96]
β-arr Max. Resp. [1, 3]: F (F represents a maximal response of > 60%) | EC50 [1, 4]: > 2100 nM | EC50 [2, 5]: > 2100 nM | cAMP Max. Resp. [2, 6]: D (D represents a maximal response of < 40%)

COc1ccc(C2CCCCN2c2cncc(Cl)n2)cc1Br (stereo not drawn) [compound 229]
β-arr Max. Resp. [1, 3]: F (F represents a maximal response of > 60%) | EC50 [1, 4]: > 2100 nM | EC50 [2, 7]: > 2100 nM | cAMP Max. Resp. [2, 6]: F (F represents a maximal response of > 60%)

Fc1cnc(Cl)nc1N1CCCCC1c1cccnc1 (stereo not drawn) [compound 373]
β-arr Max. Resp. [1, 3]: D (D represents a maximal response of < 40%) | EC50 [1, 4]: < 700 nM | EC50 [2, 7]: < 700 nM | cAMP Max. Resp. [2, 6]: D (D represents a maximal response of < 40%)

COc1cc(C2CCCCN2S(=O)(=O)c2ccc(Cl)cc2)ccc1Br (stereo not drawn) [compound 42]
β-arr Max. Resp. [1, 3]: E (E represents a maximal response of 40-60%) | EC50 [1, 4]: 700 to 2100 nM | EC50 [2, 5]: > 2100 nM | cAMP Max. Resp. [2, 6]: D (D represents a maximal response of < 40%)

Fc1cc(C2CCCCN2c2nc(Cl)ncc2F)ccc1Br (stereo not drawn) [compound 290]
β-arr Max. Resp. [1, 3]: F (F represents a maximal response of > 60%) | EC50 [1, 4]: < 700 nM | EC50 [2, 7]: < 700 nM | cAMP Max. Resp. [2, 6]: D (D represents a maximal response of < 40%)

Fc1ccc(Cl)cc1CN1C2CCC(C2)C1c1cccc(C(F)(F)F)n1 (stereo not drawn) [compound 444]
β-arr Max. Resp. [1, 8]: F (F represents a maximal response of > 60%) | EC50 [1, 4]: > 2100 nM | EC50 [2, 7]: > 2100 nM | cAMP Max. Resp. [2, 9]: D (D represents a maximal response of < 40%)
